Test: mn = molality of the nth substance listed, in mol/kg
Conditions: 84.5 kPa, Liquid; for speed of sound: Single path-length method; for mass density: Vibrating tube method

CCCCn1cc[n+](C)c1.O=S(=O)([O-])C(F)(F)F [1-butyl-3-methylimidazolium trifluoromethanesulfonate] + O
Conditions | mass density, 288.15 K [kg/m3] | mass density, 298.15 K [kg/m3] | mass density, 308.15 K [kg/m3] | mass density, 318.15 K [kg/m3] | speed of sound, 288.15 K [m/s] | speed of sound, 298.15 K [m/s] | speed of sound, 308.15 K [m/s] | speed of sound, 318.15 K [m/s]
m1 = 0.0164 | 1000.27 | 998.176 | 995.134 | 991.289 | 1468.7 | 1498.5 | 1521.1 | 1537.4
m1 = 0.0259 | 1000.93 | 998.823 | 995.765 | 991.906 | 1469.8 | 1499.4 | 1521.8 | 1537.9
m1 = 0.042 | 1002.06 | 999.922 | 996.836 | 992.952 | 1471.8 | 1501 | 1523 | 1538.8
m1 = 0.0699 | 1003.99 | 1001.79 | 998.662 | 994.732 | 1475 | 1503.5 | 1524.8 | 1540
m1 = 0.1072 | 1006.54 | 1004.28 | 1001.08 | 997.093 | 1479.2 | 1506.6 | 1527.2 | 1541.7
m1 = 0.1455 | 1009.12 | 1006.78 | 1003.52 | 999.47 | 1483.8 | 1510.2 | 1529.8 | 1543.6
m1 = 0.3021 | 1019.31 | 1016.66 | 1013.11 | 1008.81 | 1499.6 | 1522.1 | 1538.4 | 1549.2
m1 = 0.4645 | 1029.21 | 1026.22 | 1022.39 | 1017.83 | 1513.4 | 1532.3 | 1545.4 | 1553.4
m1 = 0.6651 | 1040.6 | 1037.21 | 1033.03 | 1028.16 | 1526.7 | 1541.5 | 1551.1 | 1556.2
m1 = 0.8671 | 1051.21 | 1047.44 | 1042.94 | 1037.8 | 1535.6 | 1546.9 | 1553.8 | 1556.5
